According to ChEMBL document CHEMBL5465560, “Selectivity Literature for EUbOPEN Chemogenomic Library” (2024):
Each block holds one compound with its values, some of them ahead of it.

Assays:
[1] = target: T1, Serine/threonine-protein kinase tousled-like 1 (Homo sapiens) (UniProt Q9UKI8); test: Selectivity interaction (KinomeScan (DiscoverX)) EUB0000655a TLK1; details: at 10 µM
T1 sequence (whole entry): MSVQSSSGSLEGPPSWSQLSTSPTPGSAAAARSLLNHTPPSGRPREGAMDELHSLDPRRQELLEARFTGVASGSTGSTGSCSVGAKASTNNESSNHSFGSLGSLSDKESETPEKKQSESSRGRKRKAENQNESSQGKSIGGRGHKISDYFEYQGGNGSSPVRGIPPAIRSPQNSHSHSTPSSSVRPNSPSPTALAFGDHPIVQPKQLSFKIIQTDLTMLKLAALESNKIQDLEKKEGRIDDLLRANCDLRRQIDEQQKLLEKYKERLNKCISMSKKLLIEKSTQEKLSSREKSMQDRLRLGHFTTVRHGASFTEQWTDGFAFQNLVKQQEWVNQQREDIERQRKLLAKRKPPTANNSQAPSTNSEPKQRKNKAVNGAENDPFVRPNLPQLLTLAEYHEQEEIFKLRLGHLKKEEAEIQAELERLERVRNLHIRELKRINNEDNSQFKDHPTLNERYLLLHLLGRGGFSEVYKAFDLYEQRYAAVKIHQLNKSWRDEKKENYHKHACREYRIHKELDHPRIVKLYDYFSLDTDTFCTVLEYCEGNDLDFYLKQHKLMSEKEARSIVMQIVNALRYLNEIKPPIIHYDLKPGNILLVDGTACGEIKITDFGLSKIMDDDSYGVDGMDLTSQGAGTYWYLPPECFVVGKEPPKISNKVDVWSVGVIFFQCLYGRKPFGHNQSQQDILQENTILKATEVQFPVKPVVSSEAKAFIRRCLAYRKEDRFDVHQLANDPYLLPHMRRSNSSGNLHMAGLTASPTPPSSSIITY

[2] = target: Tyrosine-protein kinase Fyn (Homo sapiens) (UniProt P06241); test: Selectivity interaction (Millipore kinase profiler) EUB0000124b FYN; details: at 10 µM
[3] = target: Mitogen-activated protein kinase 10 (Homo sapiens, UniProt P53779); test: Selectivity interaction (Millipore kinase profiler) EUB0000124b MAPK10; details: at 10 µM
[4] = target: Serine/threonine-protein kinase SIK1 (Homo sapiens) (UniProt P57059); test: Selectivity interaction (KinomeScan (DiscoverX)) EUB0000618a SIK1; details: at 10 µM
[5] = target: T2, Ephrin type-A receptor 8 (Homo sapiens) (UniProt P29322); test: Selectivity interaction (KinomeScan (DiscoverX)) EUB0000618a EPHA8; details: at 10 µM
T2 sequence (whole entry): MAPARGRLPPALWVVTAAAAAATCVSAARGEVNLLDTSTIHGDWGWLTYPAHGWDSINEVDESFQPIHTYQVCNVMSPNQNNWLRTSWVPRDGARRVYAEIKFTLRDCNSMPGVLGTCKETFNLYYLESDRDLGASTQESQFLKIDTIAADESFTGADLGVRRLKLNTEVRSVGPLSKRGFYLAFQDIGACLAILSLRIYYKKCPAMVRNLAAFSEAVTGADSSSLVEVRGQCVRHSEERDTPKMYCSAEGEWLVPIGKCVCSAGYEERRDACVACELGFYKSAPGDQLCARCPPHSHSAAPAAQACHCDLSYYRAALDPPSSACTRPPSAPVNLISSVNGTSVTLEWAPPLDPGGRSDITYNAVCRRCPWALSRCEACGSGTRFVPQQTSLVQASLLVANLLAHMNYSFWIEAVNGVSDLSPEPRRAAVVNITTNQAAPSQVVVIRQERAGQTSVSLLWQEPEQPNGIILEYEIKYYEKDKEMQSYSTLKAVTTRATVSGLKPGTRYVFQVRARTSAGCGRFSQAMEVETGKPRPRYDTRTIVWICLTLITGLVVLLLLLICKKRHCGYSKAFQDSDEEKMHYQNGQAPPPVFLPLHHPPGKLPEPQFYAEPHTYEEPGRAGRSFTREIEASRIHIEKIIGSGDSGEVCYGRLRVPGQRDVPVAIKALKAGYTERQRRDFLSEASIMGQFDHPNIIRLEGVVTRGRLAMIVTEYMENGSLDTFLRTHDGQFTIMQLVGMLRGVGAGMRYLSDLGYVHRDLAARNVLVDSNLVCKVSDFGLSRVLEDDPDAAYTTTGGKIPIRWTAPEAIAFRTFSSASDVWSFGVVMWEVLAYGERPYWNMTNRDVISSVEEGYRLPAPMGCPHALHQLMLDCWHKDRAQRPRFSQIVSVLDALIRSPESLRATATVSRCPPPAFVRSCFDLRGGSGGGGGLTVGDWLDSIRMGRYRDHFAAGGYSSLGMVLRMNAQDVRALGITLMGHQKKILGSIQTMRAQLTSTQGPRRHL

[6] = target: Cyclin-dependent kinase 17 (Homo sapiens) (UniProt Q00537); details: at 10 µM
[7] = target: T3, Myosin light chain kinase family member 4 (Homo sapiens) (UniProt Q86YV6); test: Selectivity interaction (KinomeScan (DiscoverX)) EUB0001049a MYLK4; details: at 1 µM
T3 sequence (whole entry): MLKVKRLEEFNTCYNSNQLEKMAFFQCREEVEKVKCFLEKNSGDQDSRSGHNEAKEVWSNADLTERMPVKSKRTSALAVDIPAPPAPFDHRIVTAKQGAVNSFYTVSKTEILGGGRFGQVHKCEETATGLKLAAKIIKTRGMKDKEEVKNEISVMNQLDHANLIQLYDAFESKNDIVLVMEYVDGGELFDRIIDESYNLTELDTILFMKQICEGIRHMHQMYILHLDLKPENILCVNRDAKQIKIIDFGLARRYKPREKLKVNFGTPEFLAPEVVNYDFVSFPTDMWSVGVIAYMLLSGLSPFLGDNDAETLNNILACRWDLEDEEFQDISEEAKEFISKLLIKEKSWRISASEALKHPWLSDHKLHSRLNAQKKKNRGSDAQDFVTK

[8] = target: Vasopressin V1a receptor (Homo sapiens) (UniProt P37288); test: Selectivity interaction (Panel of kinases, GPCRs, ion channels and transporters (enzymatic assay)) EUB0000266bCl AVPR1A
[9] = target: Tyrosine-protein kinase Yes (Homo sapiens) (UniProt P07947); test: Selectivity interaction (KinomeScan (DiscoverX)) EUB0000666a YES1; details: at 10 µM
[10] = target: Macrophage colony-stimulating factor 1 receptor (Homo sapiens) (UniProt P07333); test: Selectivity interaction (Kinase panel (Carna Biosciences)) EUB0001542aTs CSF1R; details: at 1 µM
[11] = target: CDK2/Cyclin A1 (Homo sapiens) (UniProt P24941+P78396); test: (§1) Selectivity interaction (LanthaScreen Eu Kinase Binding Assay) EUB0001632a CDK2; format: protein-complex assay; details: at 10 µM
[12] = target: Cyclin-dependent kinase 2/cyclin E1 (Homo sapiens) (UniProt P24864+P24941); test: as §1; format: protein-complex assay; details: at 10 µM
[13] = target: CDK2/Cyclin O (Homo sapiens) (UniProt P24941+P22674); test: as §1; format: protein-complex assay; details: at 10 µM
[14] = target: RAC-beta serine/threonine-protein kinase (Homo sapiens) (UniProt P31751); test: Selectivity interaction (Kinase panel (Z-LYTE Assay)) EUB0001632a AKT2; details: at 10 µM
Sequence of RAC-beta serine/threonine-protein kinase (Homo sapiens) (P31751 whole entry): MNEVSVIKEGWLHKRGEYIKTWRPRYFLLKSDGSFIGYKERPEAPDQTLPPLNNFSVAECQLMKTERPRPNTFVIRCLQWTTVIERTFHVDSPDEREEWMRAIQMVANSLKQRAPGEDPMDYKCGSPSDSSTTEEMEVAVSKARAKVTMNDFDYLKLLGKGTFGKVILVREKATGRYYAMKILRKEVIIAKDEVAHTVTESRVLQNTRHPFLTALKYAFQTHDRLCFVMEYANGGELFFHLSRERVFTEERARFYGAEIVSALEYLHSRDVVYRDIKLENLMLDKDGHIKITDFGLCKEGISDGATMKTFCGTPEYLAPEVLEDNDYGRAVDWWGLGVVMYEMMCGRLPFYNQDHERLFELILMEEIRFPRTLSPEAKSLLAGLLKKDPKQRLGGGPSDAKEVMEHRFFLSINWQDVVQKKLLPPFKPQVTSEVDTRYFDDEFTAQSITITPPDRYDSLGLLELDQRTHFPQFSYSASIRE

Sequence of Serine/threonine-protein kinase SIK1 (Homo sapiens) (P57059 whole entry): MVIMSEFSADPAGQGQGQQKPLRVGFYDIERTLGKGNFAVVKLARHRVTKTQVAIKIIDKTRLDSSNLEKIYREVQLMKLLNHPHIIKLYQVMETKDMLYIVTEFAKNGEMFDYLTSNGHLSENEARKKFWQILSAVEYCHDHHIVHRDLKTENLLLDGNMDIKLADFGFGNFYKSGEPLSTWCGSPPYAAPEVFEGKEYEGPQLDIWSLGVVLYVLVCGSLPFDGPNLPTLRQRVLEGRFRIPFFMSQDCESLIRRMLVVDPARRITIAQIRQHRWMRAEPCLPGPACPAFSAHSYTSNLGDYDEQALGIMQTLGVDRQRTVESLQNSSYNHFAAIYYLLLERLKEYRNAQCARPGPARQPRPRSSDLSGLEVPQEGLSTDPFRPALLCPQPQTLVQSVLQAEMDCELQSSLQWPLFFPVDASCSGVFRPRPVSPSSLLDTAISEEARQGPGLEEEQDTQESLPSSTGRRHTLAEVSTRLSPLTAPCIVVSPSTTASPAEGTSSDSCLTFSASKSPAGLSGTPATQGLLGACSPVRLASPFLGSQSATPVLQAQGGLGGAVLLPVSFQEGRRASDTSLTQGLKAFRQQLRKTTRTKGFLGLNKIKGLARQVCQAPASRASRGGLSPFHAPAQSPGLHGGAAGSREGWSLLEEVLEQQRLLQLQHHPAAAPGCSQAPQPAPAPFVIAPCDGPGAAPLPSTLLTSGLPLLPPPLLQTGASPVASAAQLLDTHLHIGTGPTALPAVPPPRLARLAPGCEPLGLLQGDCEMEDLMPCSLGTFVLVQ
Sequence of Tyrosine-protein kinase Yes (Homo sapiens) (P07947 2-543 limits assumed): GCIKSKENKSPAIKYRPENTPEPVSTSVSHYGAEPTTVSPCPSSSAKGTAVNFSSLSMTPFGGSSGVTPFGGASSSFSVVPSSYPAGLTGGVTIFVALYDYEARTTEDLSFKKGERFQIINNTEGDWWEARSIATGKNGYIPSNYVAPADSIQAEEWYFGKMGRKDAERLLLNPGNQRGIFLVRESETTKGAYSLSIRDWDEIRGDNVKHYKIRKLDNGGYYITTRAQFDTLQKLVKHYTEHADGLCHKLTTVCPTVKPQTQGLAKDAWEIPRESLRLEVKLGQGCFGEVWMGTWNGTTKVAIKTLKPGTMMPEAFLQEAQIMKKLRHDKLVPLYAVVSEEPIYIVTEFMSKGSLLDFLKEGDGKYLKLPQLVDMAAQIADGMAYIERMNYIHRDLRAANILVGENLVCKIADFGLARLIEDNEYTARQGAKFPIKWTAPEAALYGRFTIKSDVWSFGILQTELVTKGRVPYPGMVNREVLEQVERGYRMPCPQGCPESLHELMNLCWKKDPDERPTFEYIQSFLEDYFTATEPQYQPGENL
Sequence of Cyclin-dependent kinase 17 (Homo sapiens) (Q00537 whole entry, looked up): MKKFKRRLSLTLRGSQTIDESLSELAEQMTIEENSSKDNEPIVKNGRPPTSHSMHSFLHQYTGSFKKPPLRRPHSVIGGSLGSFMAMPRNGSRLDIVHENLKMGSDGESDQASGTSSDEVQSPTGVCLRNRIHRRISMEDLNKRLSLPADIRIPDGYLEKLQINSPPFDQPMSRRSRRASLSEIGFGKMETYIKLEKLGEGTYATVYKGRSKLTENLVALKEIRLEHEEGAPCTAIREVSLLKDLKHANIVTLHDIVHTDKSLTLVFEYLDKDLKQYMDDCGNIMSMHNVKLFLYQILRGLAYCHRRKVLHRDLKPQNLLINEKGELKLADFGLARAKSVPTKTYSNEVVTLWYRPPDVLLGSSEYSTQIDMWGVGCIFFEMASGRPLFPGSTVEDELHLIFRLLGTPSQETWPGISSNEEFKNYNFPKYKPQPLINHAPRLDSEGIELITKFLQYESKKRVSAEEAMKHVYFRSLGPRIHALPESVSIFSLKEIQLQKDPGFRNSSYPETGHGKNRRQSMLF
Sequence of Tyrosine-protein kinase Fyn (Homo sapiens) (P06241 2-537 limits assumed): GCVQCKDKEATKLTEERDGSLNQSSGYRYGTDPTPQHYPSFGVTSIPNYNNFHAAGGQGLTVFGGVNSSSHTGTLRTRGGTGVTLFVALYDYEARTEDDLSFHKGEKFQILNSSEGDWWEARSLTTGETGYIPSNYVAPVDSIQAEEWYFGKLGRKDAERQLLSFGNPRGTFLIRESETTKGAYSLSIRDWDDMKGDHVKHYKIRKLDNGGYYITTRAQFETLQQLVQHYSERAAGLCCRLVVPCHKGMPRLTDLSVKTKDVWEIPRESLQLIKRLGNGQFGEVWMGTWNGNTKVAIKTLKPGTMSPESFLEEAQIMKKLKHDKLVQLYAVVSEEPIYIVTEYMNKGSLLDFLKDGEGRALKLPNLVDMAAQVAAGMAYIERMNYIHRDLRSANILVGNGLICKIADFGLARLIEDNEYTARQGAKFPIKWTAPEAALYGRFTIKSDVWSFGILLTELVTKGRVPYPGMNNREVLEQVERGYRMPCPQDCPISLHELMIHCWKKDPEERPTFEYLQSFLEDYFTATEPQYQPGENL
Sequence of Vasopressin V1a receptor (Homo sapiens) (P37288 whole entry, looked up): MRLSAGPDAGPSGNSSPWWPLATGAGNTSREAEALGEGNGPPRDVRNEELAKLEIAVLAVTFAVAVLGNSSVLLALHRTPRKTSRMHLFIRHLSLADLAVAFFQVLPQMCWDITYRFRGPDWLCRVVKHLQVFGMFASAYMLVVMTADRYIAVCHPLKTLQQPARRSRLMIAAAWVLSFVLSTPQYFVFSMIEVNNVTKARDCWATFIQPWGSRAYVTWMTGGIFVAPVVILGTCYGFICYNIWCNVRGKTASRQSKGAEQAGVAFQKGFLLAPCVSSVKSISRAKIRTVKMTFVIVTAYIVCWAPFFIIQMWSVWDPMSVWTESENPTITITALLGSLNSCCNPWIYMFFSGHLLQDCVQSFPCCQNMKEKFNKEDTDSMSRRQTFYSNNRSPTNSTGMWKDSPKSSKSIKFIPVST
Sequence of Macrophage colony-stimulating factor 1 receptor (Homo sapiens) (P07333 whole entry): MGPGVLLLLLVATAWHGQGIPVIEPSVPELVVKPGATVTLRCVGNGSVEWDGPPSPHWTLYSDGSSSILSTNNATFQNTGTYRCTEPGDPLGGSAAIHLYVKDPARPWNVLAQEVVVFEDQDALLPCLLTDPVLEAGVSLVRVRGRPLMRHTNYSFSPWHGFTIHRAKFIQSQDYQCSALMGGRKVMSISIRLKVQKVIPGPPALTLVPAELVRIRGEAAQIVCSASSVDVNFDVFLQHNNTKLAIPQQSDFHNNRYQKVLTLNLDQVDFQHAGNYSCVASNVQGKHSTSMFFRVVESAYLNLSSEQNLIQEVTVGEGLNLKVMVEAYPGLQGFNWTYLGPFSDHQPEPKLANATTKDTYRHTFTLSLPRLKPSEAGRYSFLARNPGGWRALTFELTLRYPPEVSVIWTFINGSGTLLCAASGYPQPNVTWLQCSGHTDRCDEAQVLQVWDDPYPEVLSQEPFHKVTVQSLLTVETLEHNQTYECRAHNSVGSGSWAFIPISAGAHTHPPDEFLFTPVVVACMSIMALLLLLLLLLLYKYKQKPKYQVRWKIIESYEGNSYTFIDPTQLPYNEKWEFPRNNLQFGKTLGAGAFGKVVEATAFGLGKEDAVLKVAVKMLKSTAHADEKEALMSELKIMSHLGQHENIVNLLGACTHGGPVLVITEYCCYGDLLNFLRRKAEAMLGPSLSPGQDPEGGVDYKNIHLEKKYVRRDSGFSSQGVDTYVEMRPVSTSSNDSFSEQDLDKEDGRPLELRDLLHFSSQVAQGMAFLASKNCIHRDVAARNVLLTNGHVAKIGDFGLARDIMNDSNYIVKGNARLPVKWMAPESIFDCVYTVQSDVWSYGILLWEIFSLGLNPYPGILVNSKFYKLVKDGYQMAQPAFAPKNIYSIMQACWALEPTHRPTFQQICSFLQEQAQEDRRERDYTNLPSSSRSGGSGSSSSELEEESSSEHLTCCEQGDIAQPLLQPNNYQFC
Sequence of Mitogen-activated protein kinase 10 (P53779 whole entry): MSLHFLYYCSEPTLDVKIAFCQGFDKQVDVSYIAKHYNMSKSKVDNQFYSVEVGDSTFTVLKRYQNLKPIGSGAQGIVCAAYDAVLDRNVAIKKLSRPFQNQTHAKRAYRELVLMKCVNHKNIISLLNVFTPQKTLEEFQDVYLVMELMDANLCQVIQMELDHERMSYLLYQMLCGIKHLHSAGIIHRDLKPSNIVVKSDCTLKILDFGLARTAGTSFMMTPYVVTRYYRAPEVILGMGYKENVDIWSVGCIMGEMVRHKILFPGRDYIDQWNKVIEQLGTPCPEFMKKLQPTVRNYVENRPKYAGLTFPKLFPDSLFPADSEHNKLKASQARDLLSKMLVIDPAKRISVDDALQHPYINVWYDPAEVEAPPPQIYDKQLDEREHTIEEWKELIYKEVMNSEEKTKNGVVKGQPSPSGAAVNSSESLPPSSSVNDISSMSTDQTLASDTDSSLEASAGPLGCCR

SMILES: CN(C)CCOc1ccc(-c2nc(-c3ccncc3)c(-c3ccc4c(c3)CC/C4=N\O)[nH]2)cc1
% of control [1]: 99%

% of control [2]: 101% | % of control [3]: 76%
SMILES: CC(=O)Nc1cccc(-n2c(=O)n(C3CC3)c(=O)c3c(Nc4ccc(I)cc4F)n(C)c(=O)c(C)c32)c1

SMILES: O[C@H]1CC[C@H](Nc2ncc3nc(Nc4c(F)cc(F)cc4F)n([C@H]4CCOC4)c3n2)CC1
% of control [4]: 100% | % of control [5]: 72%

SMILES: COCC(=O)NC/C=C/c1ccc2ncnc(Nc3ccc(Oc4ccc(C)nc4)c(C)c3)c2c1 [CP-724714]
% of control [6]: 100%

SMILES: COc1cc(Nc2nc(C)cc(-c3cnn4nc(OC)ccc34)n2)cc(C(F)(F)F)c1
% of control [7]: 100%

pXC50 [8]: < 4.3 M
SMILES: CCn1c(-c2nc3cc(C(=O)N4CCCC(N)C4)ccc3n2C)cc2ccccc21 (centres undefined)

SMILES: O=C(NOC[C@H](O)CO)c1ccc(F)c(F)c1Nc1ccc(I)cc1F
% of control [9]: 73%

% of inhibition [10]: 59%
SMILES: Cn1cc(Nc2nccc(N3CC4CCC(C3)N4C(=O)[C@@H]3CC3(F)F)n2)cn1

% of inhibition [11]: -33.3% | % of inhibition [12]: -64.3% | % of inhibition [13]: -162% | % of control [14]: -2.38%
SMILES: Cn1cc(-n2cnc3c(NCc4nc5cc(Cl)c(Cl)cc5[nH]4)nc(N4CCOCC4)nc32)cn1
